Tests used:
MDR1 = MDR1 (Homo sapiens, UniProt P08183)
Protocol: (§1) Fold of sensitization is calculated as a ratio of LD50 in the presence and in the absence of the inhibitor compound (see FIG. 6).
(§2) Fold of sensitization again is calculated as the ratio of LD50 in the presence and in the absence of the inhibitor compound (see FIG. 6).

MRP2 = MRP2 (Homo sapiens, UniProt Q92887); assay: Sensitization to doxorubicin of cells expressing multidrug transporter MRP2; format: cell-based; conditions: ratio of LD50
Protocol: as §1, §2

MRP1 [1] = target: T1, MRP1 (Homo sapiens, UniProt P33527); assay: Sensitization to doxorubicin of cells expressing multidrug transporter MRP1; format: cell-based; conditions: ratio of LD50
T1 construct: MCF7/VP breast cancer cells (24), which have amplified and overexpressed MRP1, but negligible Pgp expression; endogenous in cells; host or cells: MCF7/VP (MCF7/VP clone 14) breast cancer cells
Protocol: as §1, §2

MCF7/VP cells = assay: Sensitization of MRP1-expressing MCF7/VP cells to chemotherapeutic drugs (methylene blue assay); format: cell-based; conditions: for folds of sensitization of MCF7/VP cells to cisplatin: cisplatin is not an MRP1 substrate; for folds of sensitization of MCF7/VP cells to doxorubicin / folds of sensitization of MCF7/VP cells to etoposide / folds of sensitization of MCF7/VP cells to vincristine: ratio of LD50 in the presence and in the absence of the compound
Protocol: Cells in 96-well plates (5×10^3 per well) were incubated with different concentrations of vincristine in the presence of 5 μM of the candidate compounds for 3 days. Cell numbers then were estimated using methylene blue assay. […] Verapamil (10 μM) was used as control.
FIG. 6 illustrates the effect of the identified inhibitor compounds on cell sensitivity to doxorubicin and vincristine. Cells (with or without MRP1 expression) were incubated 24 hours with the indicated concentrations of vincristine or doxorubicin followed by incubation for additional 48 hours in drugfree media. Cell numbers were quantified by standard methylene blue assay.
as §1
FIG. 8 illustrates the effects of the identified inhibitor compounds on sensitivity of MRP1-positive and MRP1-negative cells to vincristine. Fold of sensitization again is calculated as the ratio of LD50 in the presence and in the absence of the inhibitor compound (see FIG. 6).
FIG. 9 illustrates the effects of the identified inhibitor compounds on sensitivity of MRP1-positive and MRP1-negative cells to etoposide. Fold of sensitization again is calculated as the ratio of LD50 in the presence and in the absence of the inhibitor compound (see FIG. 6).
FIG. 10 illustrates the effects of the identified inhibitor compounds on sensitivity of MRP1-positive and MRP1-negative cells to taxol and cisplatin. Fold of sensitization again is calculated as the ratio of LD50 in the presence and in the absence of the inhibitor compound (see FIG. 6).

MDR3 = assay: Sensitization to doxorubicin of cells expressing multidrug transporter MDR3; format: cell-based; conditions: ratio of LD50
Protocol: as §1, §2

MRP1 [2] = target: T1, MRP1; assay: Dose dependence of drug sensitization effect, 4H10 vs MK571 (FIG. 14); format: cell-based; conditions: three different lots of 4H10
NB cells = assay: Direct toxicity toward NB cell lines (FIG. 18); format: cell-based; conditions: different lots of compound
NB = assay: In vivo efficacy in mouse model of NB in combination with chemotherapeutic agents (FIG. 20)
Description: The test was a clinically relevant mouse model of NB that closely reflects the human disease (n=10, unless otherwise noted).

MRP1 [3] = target: T1, MRP1; assay: Daunorubicin retention / efflux assay (FIG. 12); format: cell-based; conditions: daunorubicin 2 hours with compound, then 1 hour drug-free medium; retained daunorubicin
Protocol: FIG. 12 classifies the identified inhibitor compounds according to their strength as inhibitors of […] by MRP1. Cells were treated with daunorubicin in the presence of a test compound or a control for 2 hours, followed by incubation in fresh drug-free medium for 1 hour. Retained daunorubicin levels were measured to determine the effect of the inhibitor compounds on efflux activities.

[4] = In vivo toxicity, mouse weight after single i.p. injection (FIG. 19); conditions: up to 100 mg/kg
Description: In particular, one parameter for testing toxicity is a weight loss of greater the […] of the body weight of a test mouse.

GL15 and 8 MG cell lines = conditions: both glioma cell lines; cited from earlier work

Chain of MRP2 (Q92887 whole entry, species assumed): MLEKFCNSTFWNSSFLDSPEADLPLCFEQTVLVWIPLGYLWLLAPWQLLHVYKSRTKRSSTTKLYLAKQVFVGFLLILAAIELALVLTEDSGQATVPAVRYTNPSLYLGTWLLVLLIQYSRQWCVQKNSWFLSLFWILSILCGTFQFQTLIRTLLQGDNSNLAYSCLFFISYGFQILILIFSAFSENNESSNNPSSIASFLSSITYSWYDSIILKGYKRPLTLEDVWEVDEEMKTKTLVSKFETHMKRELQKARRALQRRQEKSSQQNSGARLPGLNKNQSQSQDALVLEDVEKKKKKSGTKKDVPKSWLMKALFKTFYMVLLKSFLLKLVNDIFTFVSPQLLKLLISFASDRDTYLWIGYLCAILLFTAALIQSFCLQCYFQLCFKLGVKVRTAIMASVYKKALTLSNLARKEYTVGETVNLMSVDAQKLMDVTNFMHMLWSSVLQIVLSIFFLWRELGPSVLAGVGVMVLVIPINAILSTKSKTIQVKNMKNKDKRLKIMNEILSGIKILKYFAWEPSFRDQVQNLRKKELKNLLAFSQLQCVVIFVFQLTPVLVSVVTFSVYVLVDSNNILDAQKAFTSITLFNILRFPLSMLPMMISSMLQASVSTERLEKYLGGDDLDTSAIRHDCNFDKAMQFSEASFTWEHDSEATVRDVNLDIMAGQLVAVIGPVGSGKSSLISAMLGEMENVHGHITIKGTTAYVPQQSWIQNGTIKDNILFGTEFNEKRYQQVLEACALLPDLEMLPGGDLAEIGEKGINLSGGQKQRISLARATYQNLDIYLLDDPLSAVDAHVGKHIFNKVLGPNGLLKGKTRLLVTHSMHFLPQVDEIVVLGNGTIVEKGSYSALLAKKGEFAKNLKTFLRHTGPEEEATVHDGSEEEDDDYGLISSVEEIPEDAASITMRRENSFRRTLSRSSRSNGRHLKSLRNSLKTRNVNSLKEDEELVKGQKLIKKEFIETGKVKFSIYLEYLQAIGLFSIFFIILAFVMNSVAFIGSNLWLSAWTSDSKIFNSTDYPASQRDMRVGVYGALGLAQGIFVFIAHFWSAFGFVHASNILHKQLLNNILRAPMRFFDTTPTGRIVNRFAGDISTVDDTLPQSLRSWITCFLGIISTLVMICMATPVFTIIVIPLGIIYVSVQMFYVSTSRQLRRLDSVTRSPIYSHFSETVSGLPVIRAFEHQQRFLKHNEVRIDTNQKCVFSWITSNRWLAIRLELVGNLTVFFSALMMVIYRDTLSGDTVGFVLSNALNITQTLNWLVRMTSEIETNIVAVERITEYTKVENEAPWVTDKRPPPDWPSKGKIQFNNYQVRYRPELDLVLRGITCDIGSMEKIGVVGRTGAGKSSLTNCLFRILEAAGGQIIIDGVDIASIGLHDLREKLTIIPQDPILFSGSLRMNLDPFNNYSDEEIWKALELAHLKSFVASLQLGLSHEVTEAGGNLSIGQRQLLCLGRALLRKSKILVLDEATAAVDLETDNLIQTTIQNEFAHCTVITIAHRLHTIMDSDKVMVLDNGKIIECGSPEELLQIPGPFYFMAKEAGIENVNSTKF
Chain of MDR1 (P08183 whole entry): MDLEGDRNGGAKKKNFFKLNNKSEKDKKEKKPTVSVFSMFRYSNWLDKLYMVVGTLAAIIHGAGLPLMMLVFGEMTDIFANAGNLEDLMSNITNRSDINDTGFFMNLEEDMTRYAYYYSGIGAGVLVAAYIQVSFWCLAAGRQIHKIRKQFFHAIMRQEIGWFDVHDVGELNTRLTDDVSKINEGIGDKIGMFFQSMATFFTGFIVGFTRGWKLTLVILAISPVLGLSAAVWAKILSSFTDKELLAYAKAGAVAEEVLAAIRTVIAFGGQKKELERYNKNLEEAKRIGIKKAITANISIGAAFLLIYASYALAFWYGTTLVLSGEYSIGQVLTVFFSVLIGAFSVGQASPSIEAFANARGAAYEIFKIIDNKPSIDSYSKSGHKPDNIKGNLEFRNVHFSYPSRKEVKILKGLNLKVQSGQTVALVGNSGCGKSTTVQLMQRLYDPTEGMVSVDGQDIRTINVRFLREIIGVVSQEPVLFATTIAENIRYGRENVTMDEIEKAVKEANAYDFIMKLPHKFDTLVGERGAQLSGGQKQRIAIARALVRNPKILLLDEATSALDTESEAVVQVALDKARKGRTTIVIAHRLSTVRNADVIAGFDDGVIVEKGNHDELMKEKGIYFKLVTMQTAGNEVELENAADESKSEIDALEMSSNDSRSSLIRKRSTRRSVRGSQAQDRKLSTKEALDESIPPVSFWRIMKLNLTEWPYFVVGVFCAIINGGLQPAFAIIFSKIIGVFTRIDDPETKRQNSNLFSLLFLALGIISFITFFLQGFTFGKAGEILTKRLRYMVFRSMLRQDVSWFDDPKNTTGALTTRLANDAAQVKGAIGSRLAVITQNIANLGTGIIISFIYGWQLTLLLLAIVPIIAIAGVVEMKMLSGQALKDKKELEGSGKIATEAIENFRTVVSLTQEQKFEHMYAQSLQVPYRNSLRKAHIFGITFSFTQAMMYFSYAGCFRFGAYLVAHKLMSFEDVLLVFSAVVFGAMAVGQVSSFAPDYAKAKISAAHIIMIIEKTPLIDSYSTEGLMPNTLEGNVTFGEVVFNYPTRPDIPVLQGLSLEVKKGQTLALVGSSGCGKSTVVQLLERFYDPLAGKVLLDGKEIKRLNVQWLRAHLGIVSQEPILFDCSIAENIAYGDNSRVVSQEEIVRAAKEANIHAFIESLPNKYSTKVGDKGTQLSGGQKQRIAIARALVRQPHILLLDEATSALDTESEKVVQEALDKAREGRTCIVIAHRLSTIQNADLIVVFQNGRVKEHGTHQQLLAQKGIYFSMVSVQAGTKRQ
T1 sequence (P33527 whole entry): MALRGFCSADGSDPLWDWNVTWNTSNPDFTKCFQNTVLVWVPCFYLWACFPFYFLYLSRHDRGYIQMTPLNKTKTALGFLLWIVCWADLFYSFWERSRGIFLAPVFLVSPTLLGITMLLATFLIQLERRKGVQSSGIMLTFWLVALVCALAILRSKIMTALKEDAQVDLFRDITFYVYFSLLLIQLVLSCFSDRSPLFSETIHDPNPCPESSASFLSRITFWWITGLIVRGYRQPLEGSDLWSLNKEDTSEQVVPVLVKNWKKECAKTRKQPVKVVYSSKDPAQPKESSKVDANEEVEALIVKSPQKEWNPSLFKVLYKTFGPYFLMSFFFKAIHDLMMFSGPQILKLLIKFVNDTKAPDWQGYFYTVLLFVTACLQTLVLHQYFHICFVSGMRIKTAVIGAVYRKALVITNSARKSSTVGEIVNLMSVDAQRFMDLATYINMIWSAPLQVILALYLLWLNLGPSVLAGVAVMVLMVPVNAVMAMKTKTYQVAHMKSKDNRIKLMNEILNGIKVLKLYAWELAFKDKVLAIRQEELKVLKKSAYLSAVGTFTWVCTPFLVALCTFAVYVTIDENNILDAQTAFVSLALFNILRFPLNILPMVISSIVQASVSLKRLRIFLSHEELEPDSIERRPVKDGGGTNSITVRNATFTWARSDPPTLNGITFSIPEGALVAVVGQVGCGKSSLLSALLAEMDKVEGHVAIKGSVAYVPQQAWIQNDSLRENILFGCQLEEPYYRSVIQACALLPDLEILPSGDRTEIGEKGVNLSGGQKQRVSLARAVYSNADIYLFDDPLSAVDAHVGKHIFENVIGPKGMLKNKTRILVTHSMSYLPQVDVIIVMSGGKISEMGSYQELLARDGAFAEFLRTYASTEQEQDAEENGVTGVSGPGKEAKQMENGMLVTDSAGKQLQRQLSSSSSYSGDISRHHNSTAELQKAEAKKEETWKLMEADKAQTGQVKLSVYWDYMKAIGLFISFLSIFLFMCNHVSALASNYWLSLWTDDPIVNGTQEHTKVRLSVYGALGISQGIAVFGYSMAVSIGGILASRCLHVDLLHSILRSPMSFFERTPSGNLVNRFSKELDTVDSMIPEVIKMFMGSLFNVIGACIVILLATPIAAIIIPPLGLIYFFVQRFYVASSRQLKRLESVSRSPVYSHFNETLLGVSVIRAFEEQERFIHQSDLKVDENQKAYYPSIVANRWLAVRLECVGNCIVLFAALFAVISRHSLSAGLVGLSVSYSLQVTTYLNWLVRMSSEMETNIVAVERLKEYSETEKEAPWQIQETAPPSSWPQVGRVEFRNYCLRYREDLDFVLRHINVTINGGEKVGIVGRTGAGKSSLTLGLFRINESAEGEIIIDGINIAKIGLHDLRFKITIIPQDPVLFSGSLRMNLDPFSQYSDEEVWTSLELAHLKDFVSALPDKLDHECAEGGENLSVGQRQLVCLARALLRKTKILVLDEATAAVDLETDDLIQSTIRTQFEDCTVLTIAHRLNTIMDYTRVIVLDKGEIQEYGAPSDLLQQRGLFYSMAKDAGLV

SMILES	folds of sensitization of doxorubicin, cells expressing MDR1 (MDR1)	folds of sensitization of doxorubicin, cells expressing MRP2 (MRP2)	folds of sensitization of doxorubicin, cells expressing MRP1 (MRP1 [1])	folds of sensitization of MCF7/VP cells to cisplatin (MCF7/VP cells)	folds of sensitization of MCF7/VP cells to doxorubicin (MCF7/VP cells)	folds of sensitization of MCF7/VP cells to etoposide (MCF7/VP cells)	folds of sensitization of MCF7/VP cells to vincristine (MCF7/VP cells)	folds of sensitization of doxorubicin, cells expressing MDR3 (MDR3)	concentrations showing drug sensitization effect (MRP1 [2])	direct toxicity against NB cells (NB cells)	effectiveness compared with BSO (NB)	strength as inhibitor of daunorubicin efflux by MRP1 (MRP1 [3])	effect on mouse weight ([4]; 30 days)	in vivo toxicity ([4]; 30 days of observation)	accumulation of vincristine and etoposide (GL15 and 8 MG cell lines)
CCN(CC)CCCNC(=O)c1cnn2c(C(F)(F)F)cc(-c3ccc(C)cc3)nc12 [Compound 4E10]	2.0 folds	7 folds	3.7 folds	1.25 folds	3.2 folds	27 folds	12 folds	0.6 folds	–	–	–	–	–	–	–
O=C(NCCN1CCOCC1)c1cnn2c(-c3ccccc3)cc(-c3ccccc3)nc12 [Compound 4E11]	4.2 folds	6.5 folds	3.9 folds	1.1 folds	2.7 folds	34 folds	10.5 folds	0.7 folds	–	–	–	–	–	–	–
CC(Sc1nnc(-c2ccco2)n1-c1ccccc1)C(=O)NC(c1ccccc1)c1ccccc1 (stereo not shown) [Compound 4G05]	4.6 folds	1.5 folds	1.75 folds	1.1 folds	1.6 folds	2 folds	3 folds	2.4 folds	–	–	–	–	–	–	–
O=C(NCCCN1CCOCC1)c1cnn2c(-c3ccccc3)cc(-c3ccccc3)nc12 [Compound 4H10]	4.5 folds	3.3 folds	4.1 folds	1.2 folds	3.8 folds	58 folds	14.2 folds	0.9 folds	submicromolar	no direct toxicity	much more effective than BSO	most potent inhibitor	did not adversely affect mouse weight	lack of in vivo toxicity	–
C=CCSc1nnc2n(-c3ccccc3)c(=O)c3c4c(sc3n12)CCC4 [Compound 9C06]	3.7 folds	4.3 folds	3.3 folds	1.5 folds	3.3 folds	12 folds	16 folds	0.4 folds	–	–	–	–	–	–	–
c1ccc(-c2cn3c4ccccc4nc3n2CCN2CCCCC2)cc1 [Compound 14C08]	3.7 folds	1.3 folds	3.0 folds	1.05 folds	4.0 folds	18 folds	14 folds	0.6 folds	–	–	–	–	–	–	–
Cc1nnc(SCC(=O)N/N=C/c2cccc3cccnc23)n1-c1ccccc1 [Compound 17A08]	2 folds	1.4 folds	1.1 folds	1.1 folds	3.6 folds	5 folds	3 folds	1.3 folds	–	–	–	–	–	–	–
COc1ccc2c(c1)c(CC(=O)O)c(C)n2C(=O)c1ccc(Cl)cc1 [Indomethacin]	–	–	–	–	–	–	–	–	–	–	–	–	–	–	increased the accumulation
CCCN(CCC)S(=O)(=O)c1ccc(C(=O)O)cc1 [probenecid]	–	–	–	–	–	–	–	–	–	–	–	–	–	–	increased the accumulation

— patent US8318724B2, “Small molecule inhibitors of MRP1 and other multidrug transporters” (The Cleveland Clinic Foundation, priority 2004, dated 2012)
